Experimental data: patent publication US9845322B2 (Hoffmann-La Roche Inc., priority 2016, dated 2017)

System: HBsAg secretion in HepG2.2.15 cells
Assay: HBsAg assay (chemiluminescence immunoassay of secreted HBsAg in culture supernatant)
Format: cell-based, HBV
Conditions: HepG2.2.15 cells; concentration at which HBsAg secretion was reduced by 50% compared to the no drug control; read-out: IC50 (HBsAg assay)
How it was run: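 IC50 taken from dose-response curves as the concentration halving secreted HBsAg relative to DMSO control. Measured by chemiluminescence immunoassay of culture supernatant from constitutively HBV-expressing HepG2.2.15 cells, seeded at 1.5×10^4/well in duplicate and exposed to three-fold serial compound dilutions at 1% final DMSO.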

Row | SMILES | IC50 [nM]
1 | CC1c2cnc(-c3ncccn3)nc2CCN1c1cc(F)c(F)c(OC2CCOC2)c1 (centres unmarked) [Example 121, 6-(3,4-difluoro-5-tetrahydrofuran-3-yloxy-phenyl)-(5R/S)-methyl-2-pyrimidin-2-yl-7,8-dihydro-5H-pyrido[4,3-d]pyrimidine] | 42
2 | CC1c2cnc(-c3ncccn3)nc2CCN1c1cc(F)c(F)c(OCC2CCCO2)c1 (centres unmarked) [Example 122, 6-[3,4-difluoro-5-(tetrahydrofuran-2-ylmethoxy)phenyl]-(5R/S)-methyl-2-pyrimidin-2-yl-7,8-dihydro-5H-pyrido[4,3-d]pyrimidine] | 16
3 | COc1cc(F)nc(N2CCc3nc(-c4ncccn4)ncc3C2C)c1 (centres unmarked) [Example 127, 6-(6-Fluoro-4-methoxy-2-pyridyl)-5-methyl-2-pyrimidin-2-yl-7,8-dihydro-5H-pyrido[4,3-d]pyrimidine] | 24

Same assay, conditions: Hepatitis B virus, HepG2.2.15, HepG2.2.15 cells; concentration at which HBsAg secretion was reduced by 50% compared to the no drug control; read-out: IC50 (HBsAg assay)

Row | SMILES | IC50 [nM]
4 | CC1c2cnc(-c3ncccn3)nc2CCN1c1cc(F)c(F)c(OCCCNC(=O)CCCCl)c1 (centres unmarked) [Example 95, 4-chloro-N-[3-[2,3-difluoro-5-(5-methyl-2-pyrimidin-2-yl-7,8-dihydro-5H-pyrido[4,3-d]pyrimidin-6-yl)phenoxy]propyl]butanamide] | 724
5 | CC1c2cnc(-c3ncccn3)nc2CCN1c1cc(F)c(F)c(OCCCN2CCCC2=O)c1 (centres unmarked) [Example 96, 1-[3-[2,3-difluoro-5-(5-methyl-2-pyrimidin-2-yl-7,8-dihydro-5H-pyrido[4,3-d]pyrimidin-6-yl)phenoxy]propyl]pyrrolidin-2-one] | 94
6 | CC1c2cnc(-c3ncccn3)nc2CCN1c1cc(F)c(F)c(OCCCS(N)(=O)=O)c1 (centres unmarked) [Example 97, 3-[2,3-difluoro-5-(5-methyl-2-pyrimidin-2-yl-7,8-dihydro-5H-pyrido[4,3-d]pyrimidin-6-yl)phenoxy]propane-1-sulfonamide] | 154
7 | CC1c2cnc(-c3ncccn3)nc2CCN1c1cc(F)c(F)c(OCCCN2CCN(C(=O)OC(C)(C)C)CC2=O)c1 (centres unmarked) [Example 98, tert-butyl 4-[3-[2,3-difluoro-5-(5-methyl-2-pyrimidin-2-yl-7,8-dihydro-5H-pyrido[4,3-d]pyrimidin-6-yl)phenoxy]propyl]-3-oxo-piperazine-1-carboxylate] | 372
8 | CC1c2cnc(-c3ncccn3)nc2CCN1c1cc(F)c(F)c(OCCCN2CCNCC2=O)c1 (centres unmarked) [Example 99, 1-[3-[2,3-difluoro-5-(5-methyl-2-pyrimidin-2-yl-7,8-dihydro-5H-pyrido[4,3-d]pyrimidin-6-yl)phenoxy]propyl]piperazin-2-one] | 1270
9 | CC1c2cnc(-c3ncccn3)nc2CCN1c1cc(F)c(F)c(OCC2CCS(=O)(=O)C2)c1 (centres unmarked) [Example 100] | 96
10 | CC1c2cnc(-c3ncccn3)nc2CCN1c1cc(F)c(F)c(OCCCN2CCN(C)CC2)c1 (centres unmarked) [Example 101, 6-[3,4-difluoro-5-[3-(4-methylpiperazin-1-yl)propoxy]phenyl]-5-methyl-2-pyrimidin-2-yl-7,8-dihydro-5H-pyrido[4,3-d]pyrimidine] | 113
11 | COC(=O)C(CCOc1cc(N2CCc3nc(-c4ncccn4)ncc3C2C)cc(F)c1F)NC(=O)OC(C)(C)C (centres unmarked) [Example 102, methyl 2-(tert-butoxycarbonylamino)-4-[2,3-difluoro-5-(5-methyl-2-pyrimidin-2-yl-7,8-dihydro-5H-pyrido[4,3-d]pyrimidin-6-yl)phenoxy]butanoate] | 249
12 | CC1c2cnc(-c3ncccn3)nc2CCN1c1cc(F)c(F)c(OCCC(NC(=O)OC(C)(C)C)C(=O)O)c1 (centres unmarked) [Example 103, 2-(tert-butoxycarbonylamino)-4-[2,3-difluoro-5-(5-methyl-2-pyrimidin-2-yl-7,8-dihydro-5H-pyrido[4,3-d]pyrimidin-6-yl)phenoxy]butanoic acid] | 2160
13 | CC1c2cnc(-c3ncccn3)nc2CCN1c1cc(F)c(F)c(OCCC(N)C(=O)O)c1 (centres unmarked) [Example 104, 2-amino-4-[2,3-difluoro-5-(5-methyl-2-pyrimidin-2-yl-7,8-dihydro-5H-pyrido[4,3-d]pyrimidin-6-yl)phenoxy]butanoic acid] | 19000
14 | CC1c2cnc(-c3ncccn3)nc2CCN1c1cc(F)c(F)c(OCCC2CCCO2)c1 (centres unmarked) [Example 105, 6-[3,4-difluoro-5-(2-tetrahydrofuran-2-ylethoxy)phenyl]-5-methyl-2-pyrimidin-2-yl-7,8-dihydro-5H-pyrido[4,3-d]pyrimidine] | 23
15 | CC1c2cnc(-c3ncccn3)nc2CCN1c1cc(F)c(F)c(OCCC[S+](C)[O-])c1 (centres unmarked) [Example 106, 6-[3,4-difluoro-5-(3-methylsulfinylpropoxy)phenyl]-5-methyl-2-pyrimidin-2-yl-7,8-dihydro-5H-pyrido[4,3-d]pyrimidine] | 208
16 | CC1c2cnc(-c3ncccn3)nc2CCN1c1cc(F)c(F)c(OCCCN2CCNC(=O)C2)c1 (centres unmarked) [Example 107, 4-[3-[2,3-difluoro-5-(5-methyl-2-pyrimidin-2-yl-7,8-dihydro-5H-pyrido[4,3-d]pyrimidin-6-yl)phenoxy]propyl]piperazin-2-one] | 171
17 | CC1c2cnc(-c3ncccn3)nc2CCN1c1cc(F)c(F)c(OCCCN2CCN(C(=O)OC(C)(C)C)CC2)c1 (centres unmarked) [Example 108, tert-butyl 4-[3-[2,3-difluoro-5-(5-methyl-2-pyrimidin-2-yl-7,8-dihydro-5H-pyrido[4,3-d]pyrimidin-6-yl)phenoxy]propyl]piperazine-1-carboxylate] | 84
18 | CC(=O)N1CCN(CCCOc2cc(N3CCc4nc(-c5ncccn5)ncc4C3C)cc(F)c2F)CC1 (centres unmarked) [Example 109, 1-[4-[3-[2,3-difluoro-5-(5-methyl-2-pyrimidin-2-yl-7,8-dihydro-5H-pyrido[4,3-d]pyrimidin-6-yl)phenoxy]propyl]piperazin-1-yl]ethanone] | 80
19 | CC1c2cnc(-c3ncccn3)nc2CCN1c1cc(F)c(F)c(OCCCN2CCN(S(C)(=O)=O)CC2)c1 (centres unmarked) [Example 110, 6-[3,4-difluoro-5-[3-(4-methylsulfonylpiperazin-1-yl)propoxy]phenyl]-5-methyl-2-pyrimidin-2-yl-7,8-dihydro-5H-pyrido[4,3-d]pyrimidine] | 79
20 | COc1cc(N2CCc3nc(-c4ncccn4)ncc3C2C)cc(F)c1I (centres unmarked) [Example 111, 6-(3-fluoro-4-iodo-5-methoxy-phenyl)-5-methyl-2-pyrimidin-2-yl-7,8-dihydro-5H-pyrido[4,3-d]pyrimidine] | 41
21 | COc1cc(N2CCc3nc(-c4ncccn4)ncc3C2C)cc(C(F)(F)F)c1 (centres unmarked) [Example 112, 6-[3-methoxy-5-(trifluoromethyl)phenyl]-5-methyl-2-pyrimidin-2-yl-7,8-dihydro-5H-pyrido[4,3-d]pyrimidine] | 84
22 | CC1c2cnc(-c3ncccn3)nc2CCN1c1cc(F)c(F)c(OCCCN2CCNC2=O)c1 (centres unmarked) [Example 113, 1-[3-[2,3-difluoro-5-(5-methyl-2-pyrimidin-2-yl-7,8-dihydro-5H-pyrido[4,3-d]pyrimidin-6-yl)phenoxy]propyl]imidazolidin-2-one] | 94
23 | CC1c2cnc(-c3ncccn3)nc2CCN1c1cc(F)c(F)c(OCCC2CCOC2)c1 (centres unmarked) [Example 114, 6-[3,4-difluoro-5-(2-tetrahydrofuran-3-ylethoxy)phenyl]-5-methyl-2-pyrimidin-2-yl-7,8-dihydro-5H-pyrido[4,3-d]pyrimidine] | 18
24 | CC1c2cnc(-c3ncccn3)nc2CCN1c1cc(F)c(F)c(OCCC2CN(C(=O)OC(C)(C)C)C2)c1 (centres unmarked) [Example 115, tert-butyl 3-[2-[2,3-difluoro-5-(5-methyl-2-pyrimidin-2-yl-7,8-dihydro-5H-pyrido[4,3-d]pyrimidin-6-yl)phenoxy]ethyl]azetidine-1-carboxylate] | 12
25 | CC1c2cnc(-c3ncccn3)nc2CCN1c1cc(F)c(F)c(OCCC2CNC2)c1 (centres unmarked) [Example 116, 6-[3-[2-(azetidin-3-yl)ethoxy]-4,5-difluoro-phenyl]-5-methyl-2-pyrimidin-2-yl-7,8-dihydro-5H-pyrido[4,3-d]pyrimidine] | 902
26 | CC(=O)N1CC(CCOc2cc(N3CCc4nc(-c5ncccn5)ncc4C3C)cc(F)c2F)C1 (centres unmarked) [Example 117, 1-[3-[2-[2,3-difluoro-5-(5-methyl-2-pyrimidin-2-yl-7,8-dihydro-5H-pyrido[4,3-d]pyrimidin-6-yl)phenoxy]ethyl]azetidin-1-yl]ethanone] | 72
27 | CC1c2cnc(-c3ncccn3)nc2CCN1c1cc(F)c(F)c(OCCC2CN(S(C)(=O)=O)C2)c1 (centres unmarked) [Example 118, 6-[3,4-difluoro-5-[2-(1-methylsulfonylazetidin-3-yl)ethoxy]phenyl]-5-methyl-2-pyrimidin-2-yl-7,8-dihydro-5H-pyrido[4,3-d]pyrimidine] | 13
28 | CC1c2cnc(-c3ncccn3)nc2CCN1c1cc(F)c(F)c(OCC2CSC2)c1 (centres unmarked) [Example 119, 6-[3,4-difluoro-5-(thietan-3-ylmethoxy)phenyl]-5-methyl-2-pyrimidin-2-yl-7,8-dihydro-5H-pyrido[4,3-d]pyrimidine] | 51
29 | CC1c2cnc(-c3ncccn3)nc2CCN1c1cc(F)c(F)c(OCC2CS(=O)(=O)C2)c1 (centres unmarked) [Example 120, 3-[[2,3-difluoro-5-(5-methyl-2-pyrimidin-2-yl-7,8-dihydro-5H-pyrido[4,3-d]pyrimidin-6-yl)phenoxy]methyl]thietane 1,1-dioxide] | 96
30 | COc1cc(Cl)nc(N2CCc3nc(-c4ncccn4)ncc3C2C)c1 (centres unmarked) [Example 126] | 8
31 | COc1cc(N2CCc3nc(-c4ncccn4)ncc3C2C)nc(F)c1I (centres unmarked) [Example 128, 6-(6-fluoro-5-iodo-4-methoxy-2-pyridyl)-5-methyl-2-pyrimidin-2-yl-7,8-dihydro-5H-pyrido[4,3-d]pyrimidine] | 5
32 | COc1cc(N2CCc3nc(-c4ncccn4)ncc3C2C)cc(F)n1 (centres unmarked) [Example 129, 6-(2-fluoro-6-methoxy-4-pyridyl)-5-methyl-2-pyrimidin-2-yl-7,8-dihydro-5H-pyrido[4,3-d]pyrimidine] | 18
